The term IC50 denotes the concentration that inhibits the measured activity by half.

Our source for the IC50 values is US20250304537A1 (Repare Therapeutics Inc., priority 2022, published 2025).

Chain of recombinant human Myt1 (full length PKMYT1) (Q99640 whole entry): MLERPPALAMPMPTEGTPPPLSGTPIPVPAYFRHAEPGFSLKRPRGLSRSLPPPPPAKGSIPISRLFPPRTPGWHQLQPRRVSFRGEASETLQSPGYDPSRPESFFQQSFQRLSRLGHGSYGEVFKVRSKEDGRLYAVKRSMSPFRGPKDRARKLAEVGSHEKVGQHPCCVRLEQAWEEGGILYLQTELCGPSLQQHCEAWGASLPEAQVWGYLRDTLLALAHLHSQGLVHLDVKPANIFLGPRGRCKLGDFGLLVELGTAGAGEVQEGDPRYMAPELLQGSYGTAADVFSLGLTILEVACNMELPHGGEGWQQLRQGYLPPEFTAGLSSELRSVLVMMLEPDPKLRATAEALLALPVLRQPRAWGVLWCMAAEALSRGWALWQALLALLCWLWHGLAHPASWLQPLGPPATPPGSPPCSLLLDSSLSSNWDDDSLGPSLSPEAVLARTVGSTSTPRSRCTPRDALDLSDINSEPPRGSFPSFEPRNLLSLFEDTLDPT

This experiment concerns the target recombinant human Myt1 (full length PKMYT1) (Homo sapiens (Human), UniProt Q99640). Put plainly: Recombinant human Myt1 kinase assay (ADP-Glo). It is filed as biochemical. As to conditions: 10 μM ATP. As for the experimental part:
Detection of Myt1 kinase activity utilized a recombinant human Myt1 kinase assay measuring the hydrolysis of ATP using a commercially available ADP-Glo Assay (ADP-Glo™ Kinase Assay from Promega, 10 000 assays, #V9102). Briefly, 5 μL recombinant human Myt1 (full length PKMYT1 recombinant human protein expressed in insect cells from Thermo Fisher #A33387; ˜80% purity) was prepared in reaction buffer (70 mM HEPES, 3 mM MgCl2, 3 mM MnCl2, 50 μg/ml PEG 20000, 3 μM Na-orthovanadate, 1.2 mM DTT) and added to 384 well white polystyrene, flat bottom well, non-treated, microplate (Corning #3572). After this, 5 μL of compounds (diluted in reaction buffer to 0.5% DMSO) was added to the microplate and the plate was spun briefly and incubated at 22° C. for 15 minutes. Ultra-Pure Adenosine Triphosphate (ATP) solution (ADP-Glo kit from Promega) was diluted in reaction buffer and 5 μL was added to the microplate, spun down briefly and incubated for 60 minutes at 30° C. The final Myt1 enzyme concentration was 18 nM and the final ATP concentration was 10 μM. After the 60-minute incubation, 15 μL of ADP-Glo reagent was added and the plate was spun briefly and sealed and incubated in the dark for 40 minutes at 22° C. Following this, 30 μL of kinase detection reagent was added per well and the plate was spun briefly, sealed and incubated for 45-60 minutes at 22° C. in the dark. Luminescence was read using the Envision (250 ms integration). The IC50 and the % max inhibition were calculated for each inhibitor compound tested.
On the technique in general: ADP-Glo turns the ADP formed in a reaction into a luminescent signal.
For `Cc1ccc(O)cc1-c1nc(C(N)=O)c(N)c(-c2cc(O)ccc2C)n1` [Compound 12], the 50% inhibitory concentration (IC50) stood at 0.246 µM.
To `Cc1ccc2[nH]ncc2c1-c1nc(-c2ccc(C#N)s2)nc(C(N)=O)c1N` [Compound 158] belongs 0.021 µM; to `Cc1ccc2[nH]ncc2c1-c1cc(-c2cccc(OCC3(N)CC3)n2)nc(C(N)=O)c1N` (atropisomer, axis not shown) [Compound 382], 0.003 µM.
Regarding `Cc1ccc(O)cc1-c1nc(-c2cccc(F)n2)nc(C(N)=O)c1N` [Compound 5], the IC50 came to 0.025 µM.
To `Cc1ccc2[nH]ncc2c1-c1cc(-c2ccnc(N[C@H]3c4ccccc4C[C@H]3O)n2)nc(C(N)=O)c1N` (atropisomer, axis not shown) [Compound 376] belongs 0.015 µM; to `Cc1ccc2[nH]ncc2c1-c1cc(-c2ccnc(N3CC[C@H](O)C3)n2)nc(C(N)=O)c1N` [Compound 348], 0.015 µM.
Take `CCC(COc1cccc(-c2cc(-c3c(C)ccc4[nH]ncc34)c(N)c(C(N)=O)n2)c1)OC` (stereo not shown) [Compound 360]: the IC50 was 0.33 µM.
Next, `Cc1cc(-c2nc(C(N)=O)c(N)c(-c3c(C)ccc4[nH]ncc34)n2)cc(C(F)(F)F)c1` [Compound 144]: 0.13 µM; `Cc1ccc2[nH]ncc2c1-c1cc(-c2cccc(N[C@@H](CO)c3ccccc3)n2)nc(C(N)=O)c1N` [Compound 275]: 0.141 µM; `COc1cc(-c2nc(C(N)=O)c(N)c(-c3cc(O)ccc3C)n2)ccn1` [Compound 25]: 0.015 µM.
Take `Cc1ccc2[nH]ncc2c1-c1cc(-c2ccnc(OCc3cncn3C3CCCCC3)n2)nc(C(N)=O)c1N` [Compound 328]: the concentration for half-maximal inhibition (IC50) was determined as 0.018 µM.
Regarding `COCC(=O)c1ccccc1-c1nc(C(N)=O)c(N)c(-c2c(C)ccc3[nH]ncc23)n1` [Compound 793], the IC50 came to 0.266 µM.
Next, `Cc1ccc(O)cc1-c1nc(-c2ccc(C#N)cc2)nc(C(N)=O)c1N` [Compound 23]: 0.051 µM; `Cc1ccc2[nH]ncc2c1-c1cc(-c2cccc(OC[C@H]3CCCN3)n2)nc(C(N)=O)c1N` (atropisomer, axis not shown) [Compound 387]: 0.64 µM.
Next, `Cc1ccc2[nH]ncc2c1-c1nc(-c2ccc(N3CCOCC3)c(C(F)(F)F)c2)nc(C(N)=O)c1N` [Compound 157]: 0.904 µM.
Next, `Cc1ccc2[nH]ncc2c1-c1nc(-c2cccc(Cl)c2N)nc(C(N)=O)c1N` [Compound 444]: 0.043 µM; `Cc1ccc2[nH]ncc2c1-c1nc(-c2ccc(N(C)C)cc2)nc(C(N)=O)c1N` [Compound 145]: 0.057 µM.
For the molecule `COc1ccccc1COc1cccc(-c2cc(-c3c(C)ccc4[nH]ncc34)c(N)c(C(N)=O)n2)n1` [Compound 181], the IC50 came to 0.103 µM.
Next, `Cc1ccc2[nH]ncc2c1-c1cc(-c2cncs2)nc(C(N)=O)c1N` [Compound 98]: 1.94 µM.
For the molecule `Cc1ccc2[nH]ncc2c1-c1nc(-c2ccc(OC3CC3)cc2)nc(C(N)=O)c1N` [Compound 127], the 50% inhibitory concentration (IC50) worked out at 0.12 µM.
As to `CNc1ccc(-c2nc(C(N)=O)c(N)c(-c3c(C)ccc4[nH]ncc34)n2)cc1` [Compound 152], the IC50 stood at 0.044 µM.
Next, `Cc1ccc2[nH]ncc2c1-c1cc(-c2cccc(OC[C@H]3CCCO3)n2)nc(C(N)=O)c1N` (atropisomer, axis not shown) [Compound 388]: 0.643 µM; `Cc1ccc(O)c(C)c1-c1cc(C(=O)O)nc(C(N)=O)c1N` [Compound 53, 5-amino-6-carbamoyl-4-(3-hydroxy-2,6-dimethylphenyl)picolinic acid]: 1.83 µM.
Next, `Cc1ccc2[nH]ncc2c1-c1cc(-c2ccnc(OCC3CCC(=O)N3)n2)nc(C(N)=O)c1N` (stereo not shown) [Compound 317]: 0.013 µM; `Cc1ccc2[nH]ncc2c1-c1cc(-c2ccnc(N3CCC(O)(c4ccccc4)CC3)n2)nc(C(N)=O)c1N` [Compound 349]: 0.138 µM; `Cc1ccc(O)cc1-c1nc(-c2ccncc2)nc(C(N)=O)c1N` [Compound 24]: 0.018 µM.
Next, `Cc1ccc2[nH]ncc2c1-c1cc(-c2ccnc(OCCc3ccncn3)n2)nc(C(N)=O)c1N` [Compound 311]: greater than 2 µM; `Cc1ccc2[nH]ncc2c1-c1cc(-c2cccc(N3CCSCC3)n2)nc(C(N)=O)c1N` [Compound 187]: 0.078 µM; `Cc1ccc(O)cc1-c1c(Cl)c(C(N)=O)nc2ccccc12` [Compound 73, 3-chloro-4-(5-hydroxy-2-methylphenyl)quinoline-2-carboxamide]: greater than 0.05 µM.
Regarding `Cc1ccc2[nH]ncc2c1-c1cc(-c2cnc(C(C)(C)O)s2)nc(C(N)=O)c1N` [Compound 218], the IC50 is 0.23 µM.
To `Cc1ccc2[nH]ncc2c1-c1cc(-c2cccc(OCc3cncs3)n2)nc(C(N)=O)c1N` [Compound 279] belongs 0.008 µM; to `CO[C@@H](COc1nccc(-c2cc(-c3c(C)ccc4[nH]ncc34)c(N)c(C(N)=O)n2)n1)c1ccccc1` (atropisomer, axis not shown) [Compound 308], 1.74 µM.
Next, `Cc1ccc2[nH]ncc2c1-c1nc(-c2cccc(C(=O)N3CCOCC3)c2)nc(C(N)=O)c1N` [Compound 289]: 0.018 µM.
To `Cc1ccc2[nH]ncc2c1-c1cc(-c2ccnc(OCCc3nccn3C)n2)nc(C(N)=O)c1N` [Compound 264] belongs 0.009 µM.
On to `Cc1ccc2[nH]ncc2c1-c1cc(-c2ccnc(OC3CCOCC3)n2)nc(C(N)=O)c1N` (atropisomer, axis not shown) [Compound 231], for which the concentration for half-maximal inhibition (IC50) is 0.231 µM.
To `Cc1ccc2[nH]ncc2c1-c1nc(-c2cc(F)c(F)cc2NC2CN(C(=O)OC(C)(C)C)C2)nc(C(N)=O)c1N` [Compound 479] belongs greater than 2 µM; to `Cc1ccc2[nH]ncc2c1-c1cc(-c2ccnc(N3CCCC3CO)n2)nc(C(N)=O)c1N` (stereo not shown) [Compound 373], 0.02 µM; to `Cc1ccc2[nH]ncc2c1-c1cc(-c2cccc(OCc3ncccn3)n2)nc(C(N)=O)c1N` (atropisomer, axis not shown) [Compound 234], 1.88 µM.
To `Cc1ccc2[nH]ncc2c1-c1cc(-c2ncccn2)nc(C(N)=O)c1N` [Compound 219] belongs 0.056 µM; to `COCCOc1cccc(-c2cc(-c3c(C)ccc4[nH]ncc34)c(N)c(C(N)=O)n2)n1` (atropisomer, axis not shown) [Compound 270], 1.16 µM.
To `Cc1ccc2[nH]ncc2c1-c1nc(-c2cccc3ccsc23)nc(C(N)=O)c1N` [Compound 379] belongs 0.014 µM; to `Cc1ccc2[nH]ncc2c1-c1cc(-c2ccccn2)cc(C(N)=O)c1N` [Compound 137, 2-amino-3-(5-methyl-1H-indazol-4-yl)-5-(pyridin-2-yl)benzamide], 0.046 µM.
In the case of `Cc1ccc2[nH]ncc2c1-c1cc(-c2ccnc(N[C@@H](CO)c3ccccc3)n2)nc(C(N)=O)c1N` (atropisomer, axis not shown) [Compound 362], the IC50 was found to be 0.002 µM.
With `Cc1ccc2[nH]ncc2c1-c1cc(-c2ccnc(N[C@H]3CC[C@H](O)CC3)n2)nc(C(N)=O)c1N` [Compound 369], the IC50 amounted to 0.004 µM.
Next, `Cc1ccc2[nH]ncc2c1-c1nc(-c2ccc3cnn(C)c3c2)nc(C(N)=O)c1N` [Compound 119]: 0.025 µM; `Cc1ccc(O)cc1-c1nc(-c2ccn(C)c(=O)c2)nc(C(N)=O)c1N` [Compound 36]: 0.092 µM.
